Source: patent publication US10167262B2, “Herbicidal substituted 3-arylpyrazoles” (FMC CORPORATION, priority 2014, dated 2019)

Tests used:
Format in all cases: in vivo
[1] = tested on: chickweed (common chickweed, Stellaria media); assay: Test C postemergence greenhouse test, plant response rating 0-100; conditions: for Plant response rating, Chickweed: scale 0 to 100
Procedure, shortened: (§1)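 Postemergence spray onto 1–4-leaf potted seedlings, greenhouse incubation 13–15 days. Visual percent-control rating (0–100) against untreated plants.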

wild oat (Avena fatua) = assay: as above; conditions: for Plant response rating, Oat, Wild: scale 0 to 100
Procedure, shortened: as §1

kochia (Kochia scoparia) = assay: as above; conditions: for Plant response rating, Kochia: scale 0 to 100
Procedure, shortened: as §1

[2] = tested on: lambsquarters (Chenopodium album); assay: Test C pre-/postemergence greenhouse test, plant response rating 0-100; conditions: Postemergence; for Plant response rating, Lambsquarters: scale 0 to 100
Procedure, shortened: (§2)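 Pre-emergence soil and post-emergence foliar sprays were applied simultaneously to seeded loam–sand pots and to 1–4-leaf plants in peat medium; greenhouse holding lasted 13–15 days, then plants were scored visually from 0 (no effect) to 100 (complete control).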

soybean (Glycine max) = assay: as above; conditions: Postemergence; for Plant response rating, Soybean: scale 0 to 100
Procedure, shortened: as §2

[3] = tested on: winter wheat (Triticum aestivum); assay: as above; conditions: Postemergence; for Plant response rating, Wheat: scale 0 to 100
Procedure, shortened: as §2

[4] = tested on: galium (catchweed bedstraw, Galium aparine); assay: as above; conditions: Postemergence; for Plant response rating, Galium: scale 0 to 100
Procedure, shortened: as §2

[5] = tested on: johnsongrass (Sorghum halepense); assay: as above; conditions: Postemergence; for Plant response rating, Johnsongrass: scale 0 to 100
Procedure, shortened: as §2

[6] = tested on: blackgrass (Alopecurus myosuroides); assay: as above; conditions: Postemergence; for Plant response rating, Blackgrass: scale 0 to 100
Procedure, shortened: as §2

[7] = tested on: morningglory (Ipomoea coccinea); assay: as above; conditions: Postemergence; for Plant response rating, Morningglory: scale 0 to 100
Procedure, shortened: as §2

[8] = tested on: yellow nutsedge (Cyperus esculentus); assay: as above; conditions: Postemergence; for Plant response rating, Nutsedge, Yellow: scale 0 to 100
Procedure, shortened: as §2

[9] = tested on: giant foxtail (Setaria faberii); assay: as above; conditions: Postemergence; for Plant response rating, Foxtail, Giant: scale 0 to 100
Procedure, shortened: as §2

[10] = tested on: large (Lg) crabgrass (Digitaria sanguinalis); assay: as above; conditions: Postemergence; for Plant response rating, Crabgrass, Large: scale 0 to 100
Procedure, shortened: as §2

CCn1cc(C(=O)c2cccs2)c(-c2cc(Cl)cc(Cl)c2)n1 [Compound 18]
20: Plant response rating (0 to 100), Kochia (kochia (Kochia scoparia); 62 g ai/ha) | Plant response rating, Soybean (soybean (Glycine max); 250 g ai/ha) | Plant response rating, Soybean (soybean (Glycine max); 500 g ai/ha) | Plant response rating, Morningglory ([7]; 250 g ai/ha) | Plant response rating, Foxtail, Giant ([9]; 500 g ai/ha) | Plant response rating, Crabgrass, Large ([10]; 500 g ai/ha)
5: Plant response rating (0 to 100), Soybean (soybean (Glycine max); 62 g ai/ha) | Plant response rating, Wheat ([3]; 500 g ai/ha) | Plant response rating, Johnsongrass ([5]; 500 g ai/ha) | Plant response rating (0 to 100), Morningglory ([7]; 62 g ai/ha) | Plant response rating, Nutsedge, Yellow ([8]; 250 g ai/ha) | Plant response rating, Nutsedge, Yellow ([8]; 500 g ai/ha) | Plant response rating (0 to 100), Foxtail, Giant ([9]; 62 g ai/ha) | Plant response rating (0 to 100), Crabgrass, Large ([10]; 62 g ai/ha) | Plant response rating (0 to 100), Crabgrass, Large ([10]; 125 g ai/ha)
98: Plant response rating, Chickweed ([1]; 250 g ai/ha)
35: Plant response rating, Galium ([4]; 500 g ai/ha)
50: Plant response rating (0 to 100), Chickweed ([1]; 62 g ai/ha)
100: Plant response rating, Chickweed ([1]; 500 g ai/ha)
10: Plant response rating (0 to 100), Morningglory ([7]; 125 g ai/ha) | Plant response rating (0 to 100), Foxtail, Giant ([9]; 125 g ai/ha)
80: Plant response rating (0 to 100), Chickweed ([1]; 125 g ai/ha)
85: Plant response rating (0 to 100), Lambsquarters ([2]; 125 g ai/ha) | Plant response rating, Lambsquarters ([2]; 250 g ai/ha)
60: Plant response rating, Kochia (kochia (Kochia scoparia); 500 g ai/ha) | Plant response rating (0 to 100), Lambsquarters ([2]; 62 g ai/ha)
0: Plant response rating (0 to 100), Oat, Wild (wild oat (Avena fatua); 62 g ai/ha) | Plant response rating (0 to 100), Oat, Wild (wild oat (Avena fatua); 125 g ai/ha) | Plant response rating, Oat, Wild (wild oat (Avena fatua); 250 g ai/ha) | Plant response rating, Oat, Wild (wild oat (Avena fatua); 500 g ai/ha) | Plant response rating (0 to 100), Wheat ([3]; 62 g ai/ha) | Plant response rating (0 to 100), Wheat ([3]; 125 g ai/ha) | Plant response rating, Wheat ([3]; 250 g ai/ha) | Plant response rating (0 to 100), Galium ([4]; 62 g ai/ha) | Plant response rating (0 to 100), Galium ([4]; 125 g ai/ha) | Plant response rating, Galium ([4]; 250 g ai/ha) | Plant response rating (0 to 100), Johnsongrass ([5]; 62 g ai/ha) | Plant response rating, Johnsongrass ([5]; 250 g ai/ha) | Plant response rating (0 to 100), Blackgrass ([6]; 62 g ai/ha) | Plant response rating, Blackgrass ([6]; 125 g ai/ha) | Plant response rating, Blackgrass ([6]; 250 g ai/ha) | Plant response rating, Blackgrass ([6]; 500 g ai/ha) | Plant response rating (0 to 100), Nutsedge, Yellow ([8]; 62 g ai/ha) | Plant response rating (0 to 100), Nutsedge, Yellow ([8]; 125 g ai/ha)
90: Plant response rating, Lambsquarters ([2]; 500 g ai/ha)
45: Plant response rating, Kochia (kochia (Kochia scoparia); 250 g ai/ha) | Plant response rating, Morningglory ([7]; 500 g ai/ha)
40: Plant response rating (0 to 100), Kochia (kochia (Kochia scoparia); 125 g ai/ha)
15: Plant response rating (0 to 100), Soybean (soybean (Glycine max); 125 g ai/ha) | Plant response rating, Foxtail, Giant ([9]; 250 g ai/ha) | Plant response rating, Crabgrass, Large ([10]; 250 g ai/ha)

Fc1ccc(NN=C(c2ccccc2)c2c[nH]nc2-c2cc(Cl)cc(Cl)c2)cc1 [Compound 35]
98: Plant response rating (0 to 100), Chickweed ([1]; 62 g ai/ha) | Plant response rating (0 to 100), Lambsquarters ([2]; 62 g ai/ha) | Plant response rating (0 to 100), Lambsquarters ([2]; 125 g ai/ha)
50: Plant response rating (0 to 100), Kochia (kochia (Kochia scoparia); 62 g ai/ha)
5: Plant response rating, Galium ([4]; 500 g ai/ha) | Plant response rating, Morningglory ([7]; 250 g ai/ha) | Plant response rating, Morningglory ([7]; 500 g ai/ha) | Plant response rating (0 to 100), Nutsedge, Yellow ([8]; 125 g ai/ha) | Plant response rating, Nutsedge, Yellow ([8]; 250 g ai/ha) | Plant response rating, Nutsedge, Yellow ([8]; 500 g ai/ha) | Plant response rating, Foxtail, Giant ([9]; 500 g ai/ha) | Plant response rating (0 to 100), Crabgrass, Large ([10]; 62 g ai/ha) | Plant response rating (0 to 100), Crabgrass, Large ([10]; 125 g ai/ha) | Plant response rating, Crabgrass, Large ([10]; 250 g ai/ha) | Plant response rating, Crabgrass, Large ([10]; 500 g ai/ha)
55: Plant response rating (0 to 100), Kochia (kochia (Kochia scoparia); 125 g ai/ha)
10: Plant response rating (0 to 100), Soybean (soybean (Glycine max); 62 g ai/ha) | Plant response rating (0 to 100), Soybean (soybean (Glycine max); 125 g ai/ha) | Plant response rating, Soybean (soybean (Glycine max); 250 g ai/ha) | Plant response rating, Soybean (soybean (Glycine max); 500 g ai/ha)
0: Plant response rating (0 to 100), Oat, Wild (wild oat (Avena fatua); 62 g ai/ha) | Plant response rating (0 to 100), Oat, Wild (wild oat (Avena fatua); 125 g ai/ha) | Plant response rating, Oat, Wild (wild oat (Avena fatua); 250 g ai/ha) | Plant response rating, Oat, Wild (wild oat (Avena fatua); 500 g ai/ha) | Plant response rating (0 to 100), Wheat ([3]; 62 g ai/ha) | Plant response rating (0 to 100), Wheat ([3]; 125 g ai/ha) | Plant response rating, Wheat ([3]; 250 g ai/ha) | Plant response rating, Wheat ([3]; 500 g ai/ha) | Plant response rating (0 to 100), Galium ([4]; 62 g ai/ha) | Plant response rating (0 to 100), Galium ([4]; 125 g ai/ha) | Plant response rating, Galium ([4]; 250 g ai/ha) | Plant response rating (0 to 100), Johnsongrass ([5]; 62 g ai/ha) | Plant response rating (0 to 100), Johnsongrass ([5]; 125 g ai/ha) | Plant response rating, Johnsongrass ([5]; 250 g ai/ha) | Plant response rating, Johnsongrass ([5]; 500 g ai/ha) | Plant response rating (0 to 100), Blackgrass ([6]; 62 g ai/ha) | Plant response rating (0 to 100), Blackgrass ([6]; 125 g ai/ha) | Plant response rating, Blackgrass ([6]; 250 g ai/ha) | Plant response rating, Blackgrass ([6]; 500 g ai/ha) | Plant response rating (0 to 100), Morningglory ([7]; 62 g ai/ha) | Plant response rating (0 to 100), Morningglory ([7]; 125 g ai/ha) | Plant response rating (0 to 100), Nutsedge, Yellow ([8]; 62 g ai/ha) | Plant response rating (0 to 100), Foxtail, Giant ([9]; 62 g ai/ha) | Plant response rating (0 to 100), Foxtail, Giant ([9]; 125 g ai/ha) | Plant response rating, Foxtail, Giant ([9]; 250 g ai/ha)
100: Plant response rating (0 to 100), Chickweed ([1]; 125 g ai/ha) | Plant response rating, Chickweed ([1]; 250 g ai/ha) | Plant response rating, Chickweed ([1]; 500 g ai/ha) | Plant response rating, Lambsquarters ([2]; 250 g ai/ha) | Plant response rating, Lambsquarters ([2]; 500 g ai/ha)
90: Plant response rating, Kochia (kochia (Kochia scoparia); 250 g ai/ha)
95: Plant response rating, Kochia (kochia (Kochia scoparia); 500 g ai/ha)
